Results on 14 compounds are retold here after patent US20160008336A1, “HDAC INHIBITORS FOR THE TREATMENT OF TRAUMATIC BRAIN INJURY” (Lixte Biotechnology, Inc., priority 2013, published 2016).

Entries after “also recorded” stand apart in the source; their conditions may differ.

The test system of data set [1] is rodent brains following TBI (controlled cortical impact). The data set is described as follows: FDG-PET imaging of rat brains after TBI. The data set is classed as in vivo. Particulars: for glucose uptake levels: rat brain cells following TBI, activity expected analogous to 205. The procedure:
(§1) The rats are anesthetized as described above. The rodent's head is be shaved, the animal placed in a stereotaxic device, the skin is prepared as in the Aseptic Techniques described above and the skull exposed using a small surgical incision over the temporal scalp. A small surgical incision (9-10 mm), a burr hole in the skull (5-6 mm), and a single contusion over the right frontal cortex is performed (FIG. 7). A 5.0 mm burr hole is drilled into the skull with a hand-held trephine to expose the dura mater. […] A single contusion is then made onto the surface of the dura (tip penetration depth of 2.1 mm, velocity of 5 m/s) over the left frontal cortex. Following CCI, the burr hole is covered with a bone flap, sealed with Jet Denture Repair Professional Package, and then the incision is closed with non-absorbable suture in a simple interrupted pattern. Sham-treated controls are treated similarly, but the impactor is not activated.
(§2) TBI rodent model animals are treated with HDACis post-surgery at 4 h, 24 h and 48 h. The efficiency of HDACi treatment is evaluated as shown in FIG. 9 by studying the following parameters: • A=FDG-PET imaging analysis • B=Rota behavior test • C=Pathology analysis (H&E, IHC, IF, & gross) • D=Frozen samples (2D gel and WB) • E=Harvest animals and procure brain samples • Tx=HDI treatment
FDG-PET imaging is conducted in larger animal cohorts treated with different drug concentrations to further confirm HDACis potential therapeutic effect in treating TBI and in increasing […].
^18F-FDG is purchased from the Nuclear Pharmacy of Cardinal Health, and reconstituted with sterile saline. PET scans and image analysis are performed using an Inveon microPET scanner (Siemens Medical Solutions). Each rat is injected with 18.5 MBq (500 μCi) of ^18F-FDG via tail vein. All the rats are maintained under anesthesia and warmed condition. 10 min static scans are acquired at 1 h after injection. The images are reconstructed using a two-dimensional ordered-subset expectation maximum (OSEM) algorithm, and no correction is applied for attenuation or scatter. For each microPET scan, regions of interest (ROIs) are drawn over the brain and muscle region using vendor software ASI Pro 5.2.4.0 on decay-corrected whole-body coronal images. The radioactivity accumulation within brain, heart and brown fat are obtained from mean pixel values within the multiple ROI volumes and then converted to megabecquerels (MBq) per milliliter […] using a conversion factor. These values are then divided by the administered activity to obtain (assuming a tissue density of 1 g/ml) an image-ROI-derived percent injected dose per gram (% ID/g).

In data set [2] the test system is post-traumatic brain injured rats. The data set is described as follows: Behavioral motor performance (balance beam) test after TBI. Particulars: for motor skills tests: rats post-TBI, activity expected analogous to 205. Format: in vivo, rat. The protocol:
as §1, §2
Balance Beam Test: The balance beam is a test of motor coordination (3-4). It is also a useful assay for sedation and joint pathology. Several beams are available. In general the round beams are harder than the square beams, and the thinner the beam the harder the test. In this test, animals have to walk and cross a round balance beam (like across one meter bridge-bar) to test their balance and motor skills. The score is recorded compared to sham group: • 100%: walk balance and cross whole balance beam. • 10%-90%: walk balance and cross balance beam from 10 cm to 90 cm. • 0%: walk unbalance and slip down

Another data set relates to Caspase 3. The data set is described as follows: Western blot of TBI brain tissue, Caspase 3. The data set is classed as in vivo, rat. The conditions noted are these: for Pro-Caspase 3 expression: rat brain cells following TBI. The protocol:
as §2
(§3) Sections of frozen tissue protein from normal brain and TBI tissues in the injury area are extracted in T-PER solution, sonicated and centrifuged at 15,000 g at 4° C. to remove insoluble debris. The supernatant is used as the lysate. The protein concentration in each sample is measured by a colorimetric assay (Bio-Rad Protein Assay Kit) (Bio-Rad; Hercules, Calif.). Samples are denatured at 95° C. for 5 minutes in protein loading buffer. Equal amounts of protein at thirty micrograms of each lysate is loaded onto 4%-20% SDS-polyacrylamide gel (Invitrogen), and the proteins are electrophoretically transferred to nitrocellulose membranes and blocked with 5% milk solution. Detection of protein-bound primary antibodies is performed with a horseradish peroxidase-conjugated secondary antibody specific to rabbit or mouse immunoglobulin for one hour and an enhanced chemiluminescence system. Expression of specific proteins in each sample are determined and TBI injury tissue protein expression are compared to normal brain.

The test system of the next data set is phosphorylated-AKT. The data set is described as follows: Western blot of TBI brain tissue, p-AKT. Format: in vivo. Particulars: rat brain cells following TBI; for p-Akt expression: activity expected analogous to 205. The protocol:
as §2, §3

A further data set concerns Nestin. The data set is described as follows: Immunofluorescence / immunohistochemistry after TBI, Nestin. The data set is classed as in vivo, rat. The protocol: as §2
(§4) Immunohistochemistry staining is performed using commercially available GFAP and Nestin primary antibodies (Abcam) on formalin-fixed paraffin-embedded tissue mounted on positively charged slides. The expression of Nestin is thought to identify neural stem and progenitor cells within the central nervous system. GFAP expression, however, is thought to represent astrocyte activation. Samples are labeled and visualized using a DAB staining kit (EnvisionKit; Dako, Carpinteria, Calif., USA). Immunofluorescence staining is also performed (with primary antibodies for GFAP and Nestin) in order to best assess the spatial and temporal pattern of expression of molecular markers associated with astrocyte activation and gliosis observed during the brain tissue injury repair process. The specimens are visualized using a Zeiss LSM 510 confocal microscope (Carl Zeiss, Thornwood, N.Y., USA).

Data set [3] concerns TBI damage area of rodent brain. The data set is described as follows: Pathological analysis (H & E staining) and gross appearance after TBI. Format: in vivo, rat. The procedure: as §1, with “Sham-treated controls are treated similarly, but the impactor is not activated.” left out
as §2
Brain injury areas are measured and calculated post-TBI at 4 hours, day 1, and week (according to FIG. 9). […]

The next data set concerns GFAP. Kind of data set: Immunofluorescence / immunohistochemistry after TBI, GFAP. Particulars: vs sham and TBI untreated brains, FIG. 6. The data set is classed as in vivo, rat. The protocol:
as §2, §4

For data set [4] the following is noted: relative to SAHA; cited from earlier work.
Another data set deals with transformed cells. The conditions noted are these: in vitro and in vivo; background; cited from earlier work.
Setting [5] is: activity expected analogous to 205.

As for `CN(C)c1ccc(NC(=O)CCCCCNC(=O)c2ccccc2S)cc1` [Compound 206], the glucose uptake levels result in data set [1] is recorded as “increase”. The motor skills tests entry in [2] is listed as “perform significantly better”. Further, the “Pro-Caspase 3 expression” value in the data set with Caspase 3 (setting [5]) is on record as “decrease”. Also, in the data set on phosphorylated-AKT, the p-Akt expression entry is “increase”. Further, the “formation of new stem-like proliferative neural cells following TBI” value (“formation” for short) in the data set with Nestin (setting [5]) is recorded as “induce formation”.
Take `COc1ccc(S)c(C(=O)NCCCCCC(=O)Nc2ccccc2)c1` [Compound 211]: the glucose uptake levels result in data set [1] was “increase”. Moreover, in data set [2], the motor skills tests result is given as “perform significantly better”. In the data set on Caspase 3 (setting [5]), the “Pro-Caspase 3 expression” value was “decrease”. The p-Akt expression entry with phosphorylated-AKT is given as “increase”. The “formation” value in the data set with Nestin (setting [5]) was “induce formation”.
Turning to `O=C(CCCCCNC(=O)c1ccccc1S)Nc1ccccc1` [Compound 201, 2-Mercapto-N-[5-(phenyl-3-ylcarbamoyl)pentyl]benzamide], in data set [1], the glucose uptake levels result was “increase”. For the same compound, the motor skills tests result in data set [2] is reported as “perform significantly better”. In addition, the “Pro-Caspase 3 expression” value in the data set with Caspase 3 (setting [5]) is “decrease”. Moreover, the p-Akt expression entry in the data set with phosphorylated-AKT is “increase”. Besides, in the data set on Nestin (setting [5]), the “formation” value is on record as “induce formation”.
`O=C(CCCCCNC(=O)c1cc(Cl)ccc1S)Nc1ccccc1` [Compound 210]: the glucose uptake levels entry in data set [1] is on record as “increase”. Moreover, the motor skills tests entry in [2] is recorded as “perform significantly better”. Besides, the “Pro-Caspase 3 expression” value in the data set on Caspase 3 (setting [5]) is “decrease”. Besides, the p-Akt expression entry in the data set on phosphorylated-AKT is given as “increase”. Further, in the data set on Nestin (setting [5]), the “formation” value is “induce formation”.
Consider `O=C(CCCCCCCNC(=O)c1ccccc1S)Nc1ccccc1` [Compound 213], for which the glucose uptake levels entry in data set [1] was “increase”. The motor skills tests result in [2] is reported as “perform significantly better”. Moreover, the “Pro-Caspase 3 expression” value in the data set with Caspase 3 (setting [5]) is recorded as “decrease”. For the same compound, in the data set with phosphorylated-AKT, the p-Akt expression entry is “increase”. In the data set on Nestin (setting [5]), the “formation” value is “induce formation”.
Regarding `O=C(CCCCCCCCCCNC(=O)c1ccccc1S)Nc1ccccc1` [Compound 214], the glucose uptake levels entry in data set [1] was “increase”. The motor skills tests result in data set [2] is on record as “perform significantly better”. The “Pro-Caspase 3 expression” value in the data set on Caspase 3 (setting [5]) is reported as “decrease”. In addition, the p-Akt expression result in the data set with phosphorylated-AKT is recorded as “increase”. In addition, the “formation” value in the data set on Nestin (setting [5]) is reported as “induce formation”.
As for `O=C(CCCCCNC(=O)c1cc(Cl)ccc1S)Nc1cccnc1` [Compound 207a], the glucose uptake levels result in [1] is given as “increase”. Also, in data set [2], the motor skills tests entry is given as “perform significantly better”. The “Pro-Caspase 3 expression” value in the data set on Caspase 3 (setting [5]) is listed as “decrease”. Also, the p-Akt expression entry in the data set with phosphorylated-AKT is “increase”. For the same compound, the “formation” value with Nestin (setting [5]) was “induce formation”.
Turning to `O=C(CCCCCCNC(=O)c1ccccc1S)Nc1ccccc1` [Compound 212], the glucose uptake levels entry in data set [1] is “increase”. For the same compound, the motor skills tests entry in [2] was “perform significantly better”. Also, the “Pro-Caspase 3 expression” value with Caspase 3 (setting [5]) is “decrease”. Further, the p-Akt expression entry with phosphorylated-AKT was “increase”. The “formation” value with Nestin (setting [5]) was “induce formation”.
On to `O=C(CCCCCNC(=O)c1ccccc1S)Nc1cccnc1` [Compound 205, 2-Mercapto-N-[5-(pyridin-3-ylcarbamoyl)pentyl]benzamide], for which, in data set [1] (rats post-TBI, treated post-surgery at 4 h, 24 h and 48 h, FIG. 1), the “glucose uptake levels at the site of injury (FDG-PET)” value is “significantly increased; also recorded: increased glucose levels”. For the same compound, the “angiogenic activity in the brain” value in [1] (rodent model of TBI, post-injury administration) is given as “up-regulated angiogenic activity”. In addition, the “H & E staining: reactive gliosis and cellularity” value in data set [3] (FIG. 3) is “increased reactive gliosis (arrow) and more active brain cells observed; also recorded: increased reactive gliosis (as well as increased cellularity)”. The “gross appearance of TBI damage area / scarring” value in [3] (gross post-mortem examination, FIG. 2) was “improved; also recorded: much less scaring and less appearance of obvious injury; also recorded: reduced scarring”. The “behavioral motor performance (motor skill tests)” value in [2] (post-injury administration, 10 mg/kg, one meter bar, FIG. 4) is on record as “improves behavioral performance; also recorded: performed significantly better”. Besides, the “Cleaved Caspase 3 expression” value in the data set with Caspase 3 (Western blot, FIG. 5a) is given as “significantly decreased”. In addition, the “Pro-Caspase 3 expression” value with Caspase 3 (FIG. 5a) was “decreased”. Further, the p-AKT expression result with phosphorylated-AKT (FIG. 5b) is “increased”. Besides, the “formation” value in the data set with Nestin (following TBI) is given as “induced formation”. The “Nestin staining / expression” value in the data set with Nestin (vs sham and TBI untreated brains, FIG. 6) is given as “increased”. In addition, in the data set on GFAP, the “GFAP staining / expression” value was “increased”. For the same compound, in data set [4], the half-life in vivo result was “longer half-life in vivo”.
As for `O=C(NCCCCCCNC(=O)c1ccccc1S)c1ccccc1S` [Compound 204], the glucose uptake levels entry in [1] is reported as “increase”. For the same compound, the motor skills tests entry in data set [2] is listed as “perform significantly better”. In addition, the “Pro-Caspase 3 expression” value in the data set on Caspase 3 (setting [5]) is given as “decrease”. The p-Akt expression entry with phosphorylated-AKT is “increase”. Moreover, the “formation” value in the data set with Nestin (setting [5]) was “induce formation”.
Consider `O=C(NCCCCCCNC(=O)c1ccccc1O)c1ccccc1O` [Compound 203], for which the glucose uptake levels entry in data set [1] is given as “increase”. In addition, the motor skills tests result in data set [2] was “perform significantly better”. The “Pro-Caspase 3 expression” value with Caspase 3 (setting [5]) is on record as “decrease”. The p-Akt expression result in the data set with phosphorylated-AKT is recorded as “increase”. In the data set with Nestin (setting [5]), the “formation” value is reported as “induce formation”.
In the case of `Nc1ccc(NC(=O)CCCCCNC(=O)c2ccccc2S)cc1` [Compound 209], the glucose uptake levels entry in data set [1] is “increase”. The motor skills tests entry in [2] is recorded as “perform significantly better”. The “Pro-Caspase 3 expression” value in the data set on Caspase 3 (setting [5]) was “decrease”. Further, the p-Akt expression result in the data set with phosphorylated-AKT is “increase”. Further, the “formation” value in the data set with Nestin (setting [5]) is listed as “induce formation”.
In the case of `O=C(CCCCCCC(=O)Nc1ccccc1)NO` [SAHA, Suberoylanilide hydroxamic acid], the “growth arrest and death of transformed cells” value in the data set on transformed cells is “causes growth arrest and death”.
`O=C(NCCCCCNC(=O)c1ccccc1S)c1cccnc1` [Compound 208]: in data set [1], the glucose uptake levels entry is on record as “increase”. Further, in data set [2], the motor skills tests entry is on record as “perform significantly better”. In addition, in the data set with Caspase 3 (setting [5]), the “Pro-Caspase 3 expression” value was “decrease”. Further, the p-Akt expression entry in the data set on phosphorylated-AKT was “increase”. The “formation” value with Nestin (setting [5]) was “induce formation”.
